# Measured values taken from patent publication US9611221B2, “Histone demethylase inhibitors” (CELGENE QUANTICEL RESEARCH, INC., priority 2012, dated 2017).
# What was measured:
# Format in all cases: biochemical
# JMJD2C = JMJD2C (Homo sapiens (Human), UniProt Q9H3R0); assay: JMJD2C in vitro enzyme inhibition assay (TR-FRET); settings: 0.3 nM JMJD2C, 300 nM H3K9me3-biotin peptide, 2 μM alpha-ketoglutaric acid
# From the text: (§1) This assay determines the ability of a test compound to inhibit Jarid1A, Jarid1B, and JMJD2C demethylase activity. Baculovirus expressed Jarid1A (GenBank Accession #NM_001042603, AA1-1090) was purchased from BPS Bioscience (Cat#50110). Baculovirus expressed Jarid1B (GenBank Accession #NM_006618, AA 2-751) was purchased from BPS Bioscience (Cat #50121) or custom made by MolecularThroughput. Baculovirus expressed JMJD2C (GenBank Accession #BC143571, AA 2-372) was purchased from BPS Bioscience (Cat#50105).
# The ability of test compounds to inhibit the activity of JMJD2C was determined in 384-well plate format under the following reaction conditions: 0.3 nM JMJD2C, 300 nM H3K9me3-biotin labeled peptide (Anaspec cat #64360), 2 μM alpha-ketoglutaric acid in assay buffer of 50 mM HEPES, pH7.3, 0.005% Brij35, 0.5 mM TCEP, 0.2 mg/ml BSA, 50 μM sodium L-ascorbate, and 2 μM ammonium iron(II) sulfate. Reaction product was determined quantitatively by TR-FRET after the addition of detection reagent Phycolink Streptavidin-allophycocyanin (Prozyme) and Europium-anti-di-methylated histone H3 lysine 9 (H3K9me2) antibody (PerkinElmer) in the presence of 5 mM EDTA in LANCE detection buffer (PerkinElmer) at a final concentration of 50 nM and 1 nM, respectively.
# (§2) The reaction mixture was incubated at room temperature for 30 minutes, and terminated by the addition of 6 μl of 5 mM EDTA in LANCE detection buffer containing 100 nM Phycolink Streptavidin-allophycocyanin and 2 nM Europium-anti-H3K9me2 antibody. Plates were read by EnVisionMultilabel Reader in TR-FRET mode (excitation at 320 nm, emission at 615 nm and 665 nm) after 1 hour incubation at room temperature. A ratio was calculated (665/615) for each well and fitted to determine inhibition constant (IC50).
# Jarid1A = Jarid1A (Homo sapiens (Human), UniProt P29375); assay: Jarid1A in vitro enzyme inhibition assay (TR-FRET); settings: 1 nM Jarid1A, 300 nM H3K4me3-biotin peptide, 2 μM alpha-ketoglutaric acid
# From the text: as §1
# (§3) The enzymatic assay of Jarid1A activity is based upon Time Resolved-Fluorescence Resonance Energy Transfer (TR-FRET) detection. The ability of test compounds to inhibit the activity of Jarid1A was determined in 384-well plate format under the following reaction conditions: 1 nM Jarid1A, 300 nM H3K4me3-biotin labeled peptide (Anaspec cat #64357), 2 μM alpha-ketoglutaric acid in assay buffer of 50 mM HEPES, pH7.3, 0.005% Brij35, 0.5 mM TCEP, 0.2 mg/ml BSA, 50 μM sodium L-ascorbate, and 2 μM ammonium iron(II) sulfate. Reaction product was determined quantitatively by TR-FRET after the addition of detection reagent Phycolink Streptavidin-allophycocyanin (Prozyme) and Europium-anti-mono- or di-methylated histone H3 lysine 4 (H3K4me1-2) antibody (PerkinElmer) in the presence of 5 mM EDTA in LANCE detection buffer (PerkinElmer) at a final concentration of 25 nM and 1 nM, respectively.
# as §2, with “50” for “100”, “Europium-anti-H3K4me1-2” for “Europium-anti-H3K9me2”
# Jarid1B = Jarid1B (Homo sapiens (Human), UniProt Q9UGL1); assay: Jarid1B in vitro enzyme inhibition assay (TR-FRET); settings: 0.8 nM Jarid1B, 300 nM H3K4me3-biotin peptide, 2 μM alpha-ketoglutaric acid
# From the text: as §1
# as §3, with “The” for “The enzymatic assay of Jarid1A activity is based upon Time Resolved-Fluorescence Resonance Energy Transfer (TR-FRET) detection. The”, “of Jarid1B” for “of Jarid1A”, “conditions: 0.8” for “conditions: 1”, “nM Jarid1B,” for “nM Jarid1A,”
# as §2, with “50” for “100”, “Europium-anti-H3K4me1-2” for “Europium-anti-H3K9me2”
# Sequence of Jarid1A (P29375 1-1090): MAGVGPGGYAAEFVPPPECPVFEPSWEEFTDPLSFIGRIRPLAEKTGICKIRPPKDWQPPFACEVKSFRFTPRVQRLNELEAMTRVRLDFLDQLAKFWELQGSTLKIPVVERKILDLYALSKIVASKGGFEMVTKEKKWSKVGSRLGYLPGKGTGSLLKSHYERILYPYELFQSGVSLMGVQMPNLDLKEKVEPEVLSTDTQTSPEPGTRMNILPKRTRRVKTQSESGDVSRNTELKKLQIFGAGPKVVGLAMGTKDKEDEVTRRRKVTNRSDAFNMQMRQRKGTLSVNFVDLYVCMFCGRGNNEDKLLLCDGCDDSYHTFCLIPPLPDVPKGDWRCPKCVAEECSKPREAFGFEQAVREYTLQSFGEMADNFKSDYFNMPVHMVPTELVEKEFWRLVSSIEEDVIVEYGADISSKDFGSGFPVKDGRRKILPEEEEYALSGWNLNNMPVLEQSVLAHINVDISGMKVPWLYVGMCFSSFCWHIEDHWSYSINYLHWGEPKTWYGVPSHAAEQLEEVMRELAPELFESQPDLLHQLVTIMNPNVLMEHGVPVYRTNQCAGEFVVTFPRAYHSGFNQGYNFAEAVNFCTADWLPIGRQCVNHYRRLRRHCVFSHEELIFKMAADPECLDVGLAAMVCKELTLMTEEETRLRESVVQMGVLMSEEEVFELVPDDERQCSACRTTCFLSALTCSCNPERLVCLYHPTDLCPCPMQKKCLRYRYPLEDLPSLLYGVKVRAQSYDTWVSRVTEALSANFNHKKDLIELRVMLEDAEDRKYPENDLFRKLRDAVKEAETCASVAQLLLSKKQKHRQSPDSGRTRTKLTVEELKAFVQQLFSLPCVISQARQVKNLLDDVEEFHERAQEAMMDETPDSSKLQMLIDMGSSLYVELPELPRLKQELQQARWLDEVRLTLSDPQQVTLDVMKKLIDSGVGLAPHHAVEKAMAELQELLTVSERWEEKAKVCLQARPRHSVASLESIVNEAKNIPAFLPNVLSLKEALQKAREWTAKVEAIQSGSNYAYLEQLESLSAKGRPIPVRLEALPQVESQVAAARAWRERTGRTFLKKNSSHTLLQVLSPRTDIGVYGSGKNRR
# Sequence of Jarid1B (Q9UGL1 2-751): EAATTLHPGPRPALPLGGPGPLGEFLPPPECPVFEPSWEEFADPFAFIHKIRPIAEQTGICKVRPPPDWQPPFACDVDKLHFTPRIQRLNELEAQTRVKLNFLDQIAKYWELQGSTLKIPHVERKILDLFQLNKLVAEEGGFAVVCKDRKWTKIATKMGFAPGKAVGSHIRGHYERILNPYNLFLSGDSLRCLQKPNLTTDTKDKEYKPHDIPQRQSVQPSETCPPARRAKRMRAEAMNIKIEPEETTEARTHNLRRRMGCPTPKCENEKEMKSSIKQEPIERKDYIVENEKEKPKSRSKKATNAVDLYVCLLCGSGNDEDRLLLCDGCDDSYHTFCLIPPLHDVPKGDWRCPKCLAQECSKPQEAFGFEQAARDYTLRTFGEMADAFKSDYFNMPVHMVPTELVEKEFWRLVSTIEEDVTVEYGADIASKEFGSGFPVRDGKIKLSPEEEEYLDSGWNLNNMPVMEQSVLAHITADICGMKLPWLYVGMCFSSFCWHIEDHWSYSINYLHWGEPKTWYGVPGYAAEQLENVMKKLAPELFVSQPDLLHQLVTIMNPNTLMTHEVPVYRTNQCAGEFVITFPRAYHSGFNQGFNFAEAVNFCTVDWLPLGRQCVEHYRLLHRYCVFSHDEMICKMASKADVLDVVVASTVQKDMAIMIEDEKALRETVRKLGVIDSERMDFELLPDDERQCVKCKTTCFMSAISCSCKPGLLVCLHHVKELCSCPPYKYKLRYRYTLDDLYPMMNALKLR
# Sequence of JMJD2C (Q9H3R0 2-372): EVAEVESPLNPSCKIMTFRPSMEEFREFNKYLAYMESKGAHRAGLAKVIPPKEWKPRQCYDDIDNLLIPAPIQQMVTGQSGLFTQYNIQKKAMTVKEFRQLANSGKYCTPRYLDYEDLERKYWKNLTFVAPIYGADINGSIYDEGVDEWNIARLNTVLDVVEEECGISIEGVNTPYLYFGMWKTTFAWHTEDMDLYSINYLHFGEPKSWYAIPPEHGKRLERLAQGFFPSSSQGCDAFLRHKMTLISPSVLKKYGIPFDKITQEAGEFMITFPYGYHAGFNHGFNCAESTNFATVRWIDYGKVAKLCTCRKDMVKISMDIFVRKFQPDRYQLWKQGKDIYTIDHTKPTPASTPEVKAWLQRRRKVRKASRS
Structure (SMILES),IC50 (JMJD2C),IC50 (Jarid1A),IC50 (Jarid1B)
"O=C(O)c1ccncc1NCC1Cc2ccccc2O1 (stereo not shown) [Example 43, 3-[(2,3-dihydro-1-benzofuran-2-ylmethyl)amino]pyridine-4-carboxylic acid]",≤ 100 nM,≤ 100 nM,≤ 100 nM
"O=C(O)c1ccnnc1NCc1ccccc1 [Example 1, 3-(benzylamino)pyridazine-4-carboxylic acid]",≤ 100 nM,≤ 100 nM,100 to 1000 nM
"CC1(CNc2cnccc2C(=O)O)CCCc2ccccc21 (stereo not shown) [Example 49, 3-{[(1-methyl-1,2,3,4-tetrahydronaphthalen-1-yl)methyl]amino}pyridine-4-carboxylic acid]",100 to 1000 nM,100 to 1000 nM,100 to 1000 nM
"O=C(O)c1ccncc1NCc1cccc(C(F)(F)F)c1 [Example 32, 3-{[3-(trifluoromethyl)benzyl]amino}pyridine-4-carboxylic acid]",≤ 100 nM,≤ 100 nM,≤ 100 nM
"O=C(O)c1ccncc1NCc1ccccc1F [Example 2, 3-[(2-fluorobenzyl)amino)pyridine-4-carboxylic acid]",≤ 100 nM,–,≤ 100 nM
"Cc1ccc(CNc2cnccc2C(=O)O)cc1 [Example 24, 3-[(4-methylbenzyl)amino]pyridine-4-carboxylic acid]",≤ 100 nM,≤ 100 nM,≤ 100 nM
"Nc1ccccc1CNc1cnccc1C(=O)O [Example 22, 3-[(2-aminobenzyl)amino]pyridine-4-carboxylic acid]",≤ 100 nM,≤ 100 nM,≤ 100 nM
"O=C(O)c1ccncc1NCc1ccccc1O [Example 17, 3-[(2-hydroxybenzyl)amino]pyridine-4-carboxylic acid]",≤ 100 nM,–,≤ 100 nM
"Cc1cc(Cl)ccc1CNc1cnccc1C(=O)O [Example 15, 3-[(4-chloro-2-methylbenzyl)amino]pyridine-4-carboxylic acid]",≤ 100 nM,–,≤ 100 nM
"COc1ccc(CNc2cnccc2C(=O)O)cc1 [Example 7, 3-[(4-methoxybenzyl)amino]pyridine-4-carboxylic acid]",≤ 100 nM,–,≤ 100 nM
"O=C(O)c1ccncc1NCc1ccc(-c2ccccc2)cc1 [Example 9, 3-[(biphenyl-4-ylmethyl)amino]pyridine-4-carboxylic acid]",1000 to 10000 nM,–,100 to 1000 nM
"O=C(O)c1ccncc1NCc1ccc(Cl)cc1 [Example 10, 3-[(4-chlorobenzyl)amino]pyridine-4-carboxylic acid]",≤ 100 nM,–,≤ 100 nM
"O=C(O)c1ccncc1NCc1ccc(Oc2ccccc2)cc1 [Example 12, 3-[(4-phenoxybenzyl)amino]pyridine-4-carboxylic acid]",100 to 1000 nM,–,≤ 100 nM
"CN(C)Cc1ccccc1CNc1cnccc1C(=O)O [Example 13, 3-({2-[(dimethylamino)methyl]benzyl}amino)pyridine-4-carboxylic acid]",≤ 100 nM,–,≤ 100 nM
"O=C(O)c1ccncc1NCC1CCOc2cc(F)ccc21 (stereo not shown) [Example 70, 3-{[(7-fluoro-3,4-dihydro-2H-chromen-4-yl)methyl]amino}pyridine-4-carboxylic acid]",100 to 1000 nM,–,–

Structure (SMILES),IC50 (JMJD2C),IC50 (Jarid1A),IC50 (Jarid1B)
"COc1ccc(CNc2cnccc2C(=O)O)c(OC)c1 [Example 16, 3-[(2,4-dimethoxyoxybenzyl)amino]pyridine-4-carboxylic acid]",100 to 1000 nM,–,≤ 100 nM
"O=C(O)c1ccncc1NCC1CCCc2ccc(F)cc21 (stereo not shown) [Example 50, 3-{[(7-fluoro-1,2,3,4-tetrahydronaphthalen-1-yl)methyl]amino}pyridine-4-carboxylic acid]",100 to 1000 nM,–,≤ 100 nM
"O=C(O)c1ccncc1NC[C@@H]1CCCc2cc(OCCC(F)(F)F)ccc21 [Example 100, 3-({[(1R)-6-(3,3,3-trifluoropropoxy)-1,2,3,4-tetrahydronaphthalen-1-yl]methyl}amino)pyridine-4-carboxylic acid]",100 to 1000 nM,–,–
"O=C(O)c1ccncc1NCc1cccc(F)c1 [Example 3, 3-[(3-fluorobenzyl)amino)pyridine-4-carboxylic acid]",≤ 100 nM,–,≤ 100 nM
"CC(C)Oc1ccc(CNc2cnccc2C(=O)O)cc1 [Example 11, 3-{[4-(propan-2-yloxy)benzyl]amino}pyridine-4-carboxylic acid]",100 to 1000 nM,–,–
"COc1ccc2c(c1F)CCCC2CNc1cnccc1C(=O)O (stereo not shown) [Example 102, 3-{[(5-fluoro-6-methoxy-1,2,3,4-tetrahydronaphthalen-1-yl)methyl]amino}pyridine-4-carboxylic acid]",100 to 1000 nM,–,–
"O=C(O)c1ccncc1NCC1CCOc2cc(-c3ccccc3)ccc21 (stereo not shown) [Example 69, 3-{[(7-phenyl-3,4-dihydro-2H-chromen-4-yl)methyl]amino}pyridine-4-carboxylic acid]",100 to 1000 nM,–,–
O=C(O)c1ccncc1NCc1ccc(Cl)c(Cl)c1 [Example 14],≤ 100 nM,–,≤ 100 nM
"O=C(O)c1ccncc1NCC1CCCc2c(F)cccc21 (stereo not shown) [Example 54, 3-{[(5-fluoro-1,2,3,4-tetrahydronaphthalen-1-yl)methyl]amino}pyridine-4-carboxylic acid]",100 to 1000 nM,–,–
"O=C(O)c1ccncc1NCc1ccccc1C1CC1 [Example 19, 3-[(2-cyclopropylbenzyl)amino]pyridine-4-carboxylic acid]",≤ 100 nM,–,≤ 100 nM
"O=C(O)c1ccncc1NC[C@H]1CCCc2c(F)cccc21 [Example 56, 3-({[(1S)-5-fluoro-1,2,3,4-tetrahydronaphthalen-1-yl]methyl}amino)pyridine-4-carboxylic acid]",≤ 100 nM,–,–
"O=C(O)c1ccncc1NC[C@H]1CCCc2cc(OCCC(F)(F)F)ccc21 [Example 99, 3-({[(1S)-6-(3,3,3-trifluoropropoxy)-1,2,3,4-tetrahydronaphthalen-1-yl]methyl}amino)pyridine-4-carboxylic acid]",100 to 1000 nM,–,–
O=C(O)c1ccncc1NCC1CCCc2cc(OCCC(F)(F)F)ccc21 (stereo not shown) [Example 79],100 to 1000 nM,–,–
"O=C(O)c1ccncc1NC[C@@H]1CCOc2cc(C3CC3)ccc21 [Example 88, 3-({[(4R)-7-cyclopropyl-3,4-dihydro-2H-chromen-4-yl]methyl}amino)pyridine-4-carboxylic acid]",100 to 1000 nM,–,–
"O=C(O)c1ccncc1NC[C@H]1CCOc2cc(-c3cccc(F)c3)ccc21 [Example 85, 3-({[(4S)-7-(3-fluorophenyl)-3,4-dihydro-2H-chromen-4-yl]methyl}amino)pyridine-4-carboxylic acid]",100 to 1000 nM,–,–
"O=C(O)c1ccncc1NC[C@H]1CCOc2cc(-c3ccccc3F)ccc21 [Example 95, 3-({[(4S)-7-(2-fluorophenyl)-3,4-dihydro-2H-chromen-4-yl]methyl}amino)pyridine-4-carboxylic acid]",100 to 1000 nM,–,–
